Tested on: bacteria in clinical bovine mastitis milk samples
Test: Combined bacteria identification and antimicrobial susceptibility test (colour of wells, MIC) on clinical bovine mastitis milk samples
Type: cell-based
Method: Clinical bovine mastitis milk samples were collected by a vet clinic in South Island, New Zealand. Samples were stored in the freezer for several months and shipped frozen to the testing facility. In this Example, the term “clinical” means that dairy cows had clinical symptoms of an udder infection e.g. cow behaved unusual, milk clots, swollen udder among other typical symptoms. Testing was executed in microwell plate comprising of 24 wells (3×8 wells).
In addition, 20 ul of clinical mastitis sample was added to each well with a laboratory pipette.
(§1) Abbreviations • 1. 80 ul GC+10 ul Tell: 80 ul Giolitti Cantoni base broth+10 ul Tellurite solution (1%); • 2. 80 ul TSB/Esc/Fer Cit: 80 ul Tryptic soy broth containing 0.25% Esculin and 0.125% Ammonium Ferric Citrate; • 3. 80 ul TSB/Esc/Fer Cit+10 ul Genta: 80 ul Tryptic soy broth containing 0.25% Esculin and 0.125% Ammonium Ferric Citrate+10 ul of Gentamycin solution 10 mg/ml; • 4. 80 ul McC/PR25: 80 ul MacConkey broth (single strength) containing 0.0125% phenol red; and • 5. 80 ul TSB/PR25: 80 ul Tryptic soy broth containing 0.0125% phenol red. Bacteria Identification
Columns A to C and rows 1 and 2 were used for bacteria identification. A1: coagulase positive Staph; A2: Staphylococci; B1: Strep group D; B2: Strep group D; C1: general enrichment media (gram+ and gram-bacteria); C2: coliform bacteria.
Column A3 to A8: serial dilution of benzyl penicillin as potassium. Column B3 to B8: serial dilution of ceftiofur as hydrochloride. Column C3 to C8: serial dilution of cloxacillin as sodium. Antibiotic concentrations are listed as free form ranging between 4 ug/ml to 0.05 ug/ml.
Minimum inhibitory substance concentration (MIC) is here defined as the concentration if a colour change occurs between two wells (one well remains red with drug concentration 1, the other one yellow with drug concentration 2, whereas drug concentration 1 is larger than drug concentration 2) then the MIC is the value of drug concentration 1.
Table 21 indicates the microwell plate configuration #1; Drugs: Benzylpenicillin as potassium; Cloxacillin as sodium; Ceftiofur as hydrochloride; Drug concentration in each well (A3 to C8) is based on 80 μl composition+10 μl drug solution+20 μl clinical mastitis milk sample and equivalent to listed drug concentration in μg/ml; 20 ul of clinical bovine mastitis milk sample was added to each well (A1 to C8).
In addition, each well received one drop of clinical sample from a transfer pipette which was on average about 35 mg. This was determined through weighing the well plate prior and after the addition of clinical mastitis samples. This weight was then divided by 24.
as §1, with “•” for “Abbreviations •”, “red.” for “red. Bacteria Identification”
Columns A to C and rows 1 and 2 were used for bacteria identification. A1: coagulase positive Staph; A2: Staphylococci; B1: Strep Group D; B2: -; C1: general enrichment media (gram+ and gram-); C2: coliform bacteria.
Column A3 to A8: serial dilution of benzyl penicillin as potassium. Drug concentrations given as free form ranging between 4 ug/ml to 0.05 ug/ml. Column B3 to B8: serial dilution of ceftiofur as hydrochloride. Drug concentrations given as free form ranging between 4 ug/ml to 0.05 ug/ml. Column C3 to C8: serial dilution of cloxacillin as sodium. Drug concentrations given as free form ranging between 4 ug/ml to 0.05 ug/ml.

## Cc1onc(-c2ccccc2Cl)c1C(=O)N[C@@H]1C(=O)N2[C@@H]1SC(C)(C)[C@@H]2C(=O)O [cloxacillin]
ID 1, T = 22 h, 37° C., plate configuration #1, drug 0.05 μg/ml
  Colour of media in each well: yellow
ID 1, T = 22 h, 37° C., plate configuration #1, drug 0.1 μg/ml
  Colour of media in each well: yellow
ID 1, T = 22 h, 37° C., plate configuration #1, drug 0.5 μg/ml
  Colour of media in each well: red
ID 1, T = 22 h, 37° C., plate configuration #1, drug 1 μg/ml
  Colour of media in each well: red
ID 1, T = 22 h, 37° C., plate configuration #1, drug 2 μg/ml
  Colour of media in each well: red
ID 1, T = 22 h, 37° C., plate configuration #1, drug 4 μg/ml
  Colour of media in each well: red
ID 2, T = 48 h, 37° C., plate configuration #1, drug 0.05 μg/ml
  Colour of media in each well: yellow
ID 2, T = 48 h, 37° C., plate configuration #1, drug 0.1 μg/ml
  Colour of media in each well: yellow
ID 2, T = 48 h, 37° C., plate configuration #1, drug 0.5 μg/ml
  Colour of media in each well: red
ID 2, T = 48 h, 37° C., plate configuration #1, drug 1 μg/ml
  Colour of media in each well: red
ID 2, T = 48 h, 37° C., plate configuration #1, drug 2 μg/ml
  Colour of media in each well: red
ID 2, T = 48 h, 37° C., plate configuration #1, drug 4 μg/ml
  Colour of media in each well: red
ID 3, T = 22 h, 37° C., plate configuration #1, drug 0.05 μg/ml
  Colour of media in each well: yellow
ID 3, T = 22 h, 37° C., plate configuration #1, drug 0.1 μg/ml
  Colour of media in each well: yellow
ID 3, T = 22 h, 37° C., plate configuration #1, drug 0.5 μg/ml
  Colour of media in each well: red
ID 3, T = 22 h, 37° C., plate configuration #1, drug 1 μg/ml
  Colour of media in each well: red
ID 3, T = 22 h, 37° C., plate configuration #1, drug 2 μg/ml
  Colour of media in each well: yellow
ID 3, T = 22 h, 37° C., plate configuration #1, drug 4 μg/ml
  Colour of media in each well: yellow
ID 3, T = 23 h, 37° C., Table 34, drug 0.05 μg/ml
  Colour of media in each well: yellow
ID 3, T = 23 h, 37° C., Table 34, drug 0.1 μg/ml
  Colour of media in each well: yellow
ID 3, T = 23 h, 37° C., Table 34, drug 0.5 μg/ml
  Colour of media in each well: red
ID 3, T = 23 h, 37° C., Table 34, drug 1 μg/ml
  Colour of media in each well: red
ID 3, T = 23 h, 37° C., Table 34, drug 2 μg/ml
  Colour of media in each well: yellow
ID 3, T = 23 h, 37° C., Table 34, drug 4 μg/ml
  Colour of media in each well: yellow
ID 3, T~7 h, 37° C., Table 34, drug 0.05 μg/ml
  Colour of media in each well: red
ID 3, T~7 h, 37° C., Table 34, drug 0.1 μg/ml
  Colour of media in each well: red
ID 3, T~7 h, 37° C., Table 34, drug 0.5 μg/ml
  Colour of media in each well: red
ID 3, T~7 h, 37° C., Table 34, drug 1 μg/ml
  Colour of media in each well: red
ID 3, T~7 h, 37° C., Table 34, drug 2 μg/ml
  Colour of media in each well: red
ID 3, T~7 h, 37° C., Table 34, drug 4 μg/ml
  Colour of media in each well: red
ID 3, T~11 h, 37° C., Table 34, drug 0.05 μg/ml
  Colour of media in each well: red
ID 3, T~11 h, 37° C., Table 34, drug 0.1 μg/ml
  Colour of media in each well: red
ID 3, T~11 h, 37° C., Table 34, drug 0.5 μg/ml
  Colour of media in each well: red
ID 3, T~11 h, 37° C., Table 34, drug 1 μg/ml
  Colour of media in each well: red
ID 3, T~11 h, 37° C., Table 34, drug 2 μg/ml
  Colour of media in each well: red
ID 3, T~11 h, 37° C., Table 34, drug 4 μg/ml
  Colour of media in each well: red
ID 4, T = 22 h, 37° C., plate configuration #1, drug 0.05 μg/ml
  Colour of media in each well: yellow
ID 4, T = 22 h, 37° C., plate configuration #1, drug 0.1 μg/ml
  Colour of media in each well: yellow
ID 4, T = 22 h, 37° C., plate configuration #1, drug 0.5 μg/ml
  Colour of media in each well: red
ID 4, T = 22 h, 37° C., plate configuration #1, drug 1 μg/ml
  Colour of media in each well: red
ID 4, T = 22 h, 37° C., plate configuration #1, drug 2 μg/ml
  Colour of media in each well: red
ID 4, T = 22 h, 37° C., plate configuration #1, drug 4 μg/ml
  Colour of media in each well: red
ID 5, T = 23 h, 37° C., plate configuration #2, drug 0.05 μg/ml
  Colour of media in each well: yellow
ID 5, T = 23 h, 37° C., plate configuration #2, drug 0.1 μg/ml
  Colour of media in each well: yellow
ID 5, T = 23 h, 37° C., plate configuration #2, drug 0.5 μg/ml
  Colour of media in each well: red
ID 5, T = 23 h, 37° C., plate configuration #2, drug 1 μg/ml
  Colour of media in each well: red
ID 5, T = 23 h, 37° C., plate configuration #2, drug 2 μg/ml
  Colour of media in each well: red
ID 5, T = 23 h, 37° C., plate configuration #2, drug 4 μg/ml
  Colour of media in each well: red
ID 5 to 8, T = 0 h (prior incubation, reference), plate configuration #2, drug 0.05 μg/ml
  Colour of media in each well: red
ID 5 to 8, T = 0 h (prior incubation, reference), plate configuration #2, drug 0.1 μg/ml
  Colour of media in each well: red
ID 5 to 8, T = 0 h (prior incubation, reference), plate configuration #2, drug 0.5 μg/ml
  Colour of media in each well: red

Source: patent US10829796B2, “Bacteria identification and antimicrobial susceptibility test” (priority 2015, dated 2020)
